This note sets out measurements from PubChem BioAssay (NCI).

“And” between values parts separate entries of the source, which are not always exact repeats. Equal values may be shown once.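 Dose response: 5 concentrations. Exposure: 48 h. Format: 96-well plates. Endpoint: linear interpolation; highest concentration if not reached. GI50: concentration for 50% inhibition of growth. TGI marks complete inhibition of growth.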

Test systems include A549 NSCLC; CCRF-CEM leukemia; HCT-15 colon; HL-60(TB) leukemia; MDA-N; RPMI-8226 leukemia; SK-MEL-2 melanoma; SK-MEL-28 melanoma; SK-OV-3 ovarian; SW-620 colon.
Experiment in all cases: inhibition of tumour cell growth, NCI panel, 48 h

With `COc1cc(/C=C/C(=O)N[C@@H]2C(=O)N3[C@@H]2SC(C)(C)[C@@H]3C(=O)O)cc(OC)c1OC`, the TGI in the experiment on A549 NSCLC, with CCRF-CEM leukemia, with HCT-15 colon, in the experiment with HL-60(TB) leukemia, in the experiment on MDA-N and with RPMI-8226 leukemia was above 100 µM throughout. Also, the TGI in the experiment with SK-MEL-2 melanoma, in the experiment on SK-MEL-28 melanoma, in the experiment on SK-OV-3 ovarian and in the experiment with SW-620 colon was above 100 µM throughout.

In the case of `CC1=C(C(=O)Nc2ccccc2)C(c2ccc(C)o2)C(C#N)=C(SCc2ccccc2)N1` (centres undefined), the TGI in the experiment with A549 NSCLC is above 100 µM; with CCRF-CEM leukemia it was above 100 µM; in the experiment on HCT-15 colon, above 100 µM; in the experiment with HL-60(TB) leukemia, above 100 µM; in the experiment on MDA-N, above 92.9 µM; in the experiment with RPMI-8226 leukemia, above 100 µM. The TGI with SK-MEL-2 melanoma, in the experiment with SK-MEL-28 melanoma, in the experiment with SK-OV-3 ovarian and in the experiment with SW-620 colon was above 100 µM in each case.

`O=C(N/N=C\c1ccc([N+](=O)[O-])cc1)c1ccccc1Nc1ccccc1C(=O)N/N=C/c1ccc([N+](=O)[O-])cc1`: the TGI in the experiment on A549 NSCLC, in the experiment with CCRF-CEM leukemia, in the experiment on HCT-15 colon, with HL-60(TB) leukemia, with MDA-N and in the experiment with RPMI-8226 leukemia was above 100 µM throughout. Further, the TGI with SK-MEL-2 melanoma, in the experiment with SK-MEL-28 melanoma, in the experiment with SK-OV-3 ovarian and in the experiment on SW-620 colon was above 100 µM each time.

Consider `Cc1ccc([N+](=O)[O-])cc1S(=O)(=O)Nc1ccc(C2=NNC(c3cccs3)C2)cc1` (centres undefined), for which the TGI in the experiment with A549 NSCLC is above 100 µM; in the experiment on CCRF-CEM leukemia, above 100 µM; in the experiment on HCT-15 colon it was above 100 µM; in the experiment on HL-60(TB) leukemia, 50.9 µM; with MDA-N it was above 100 µM; in the experiment on RPMI-8226 leukemia, above 100 µM. Also, the TGI in the experiment with SK-MEL-2 melanoma is above 100 µM; in the experiment on SK-MEL-28 melanoma, above 100 µM; with SK-OV-3 ovarian it was 89.4 µM; in the experiment on SW-620 colon it was above 100 µM.

In the case of `COc1cc(C(=O)Nc2c3ccccc3nc3ccccc23)cc(OC)c1OC`, the TGI in the experiment with A549 NSCLC is above 100 µM; in the experiment with CCRF-CEM leukemia, above 100 µM; in the experiment with HCT-15 colon, above 100 µM; with HL-60(TB) leukemia, 5.58 µM; in the experiment with MDA-N, above 100 µM; in the experiment with RPMI-8226 leukemia it was above 100 µM. Also, the TGI in the experiment with SK-MEL-2 melanoma, in the experiment on SK-MEL-28 melanoma, with SK-OV-3 ovarian and in the experiment on SW-620 colon was above 100 µM in each case.

Turning to `Cc1ccc(/C=N/Nc2nncc3ccccc23)s1`, the TGI in the experiment with A549 NSCLC, with CCRF-CEM leukemia, with HCT-15 colon, with HL-60(TB) leukemia, in the experiment on MDA-N and in the experiment on RPMI-8226 leukemia was above 100 µM each time. Besides, the TGI with SK-MEL-2 melanoma, with SK-MEL-28 melanoma, in the experiment with SK-OV-3 ovarian and with SW-620 colon was above 100 µM throughout.

Turning to `O=C(/C=C/c1cccs1)c1cccc(C(=O)/C=C/c2cccs2)n1`, the TGI in the experiment with A549 NSCLC was above 100 µM; in the experiment with CCRF-CEM leukemia, 8.51 µM; in the experiment on HCT-15 colon it was above 100 µM; in the experiment on HL-60(TB) leukemia it was 43 µM; in the experiment with MDA-N, above 100 µM; in the experiment on RPMI-8226 leukemia, 16 µM. Also, the TGI is above 100 µM in the experiment with SK-MEL-2 melanoma, above 100 µM with SK-MEL-28 melanoma, above 100 µM in the experiment with SK-OV-3 ovarian and 15.6 µM with SW-620 colon.

For `Clc1ccc2c(NCCNc3ccnc4cc(Cl)ccc34)ccnc2c1`, the TGI was found to be 35.6 µM in the experiment on A549 NSCLC; 46.2 µM in the experiment with CCRF-CEM leukemia; 31 µM with HCT-15 colon; 31 µM with HL-60(TB) leukemia; 31.6 µM in the experiment on MDA-N; 42 µM in the experiment on RPMI-8226 leukemia. Besides, the TGI was found to be 34.4 µM in the experiment with SK-MEL-2 melanoma, 32.5 µM in the experiment on SK-MEL-28 melanoma, 31.5 µM with SK-OV-3 ovarian and 31.3 µM in the experiment with SW-620 colon.

In the case of `O=C1C=C(N2CC2)C(=O)C=C1N1CC1`, the GI50 was 0.145 µM and 0.86 µM in the experiment with A549 NSCLC; 0.00568 µM in the experiment with CCRF-CEM leukemia; 0.0207 µM in the experiment with HCT-15 colon; 0.00233 µM in the experiment on HL-60(TB) leukemia; 0.113 µM with MDA-N; 0.0456 µM in the experiment on RPMI-8226 leukemia. For the same compound, the GI50 with SK-MEL-2 melanoma was 0.0282 µM; in the experiment with SK-MEL-28 melanoma it was 0.187 µM; in the experiment with SW-620 colon, 0.0147 µM. Besides, the TGI in the experiment with A549 NSCLC was 11.2 µM; in the experiment with CCRF-CEM leukemia, 0.456 µM; in the experiment with HCT-15 colon, 0.231 µM and 1.21 µM; in the experiment with HL-60(TB) leukemia, 0.51 µM and 0.197 µM; with MDA-N, 0.274 µM and 1.9 µM; in the experiment with RPMI-8226 leukemia, 0.503 µM and 1.87 µM. Moreover, the TGI in the experiment with SK-MEL-2 melanoma is 0.0605 µM and 0.36 µM; in the experiment on SK-MEL-28 melanoma, 0.68 µM and 0.654 µM; in the experiment with SK-OV-3 ovarian it was 2.19 µM; in the experiment with SW-620 colon it was 0.848 µM.

Turning to `O=C1OC(C2OC(=O)c3cc(O)c(O)c(O)c3-c3c(O)c(O)c4oc(=O)c5c(c(O)c(O)c6oc(=O)c3c4c65)-c3c(cc(O)c(O)c3O)C(=O)OCC2O)C2OC(=O)c3c(c(O)c(O)c(O)c3[C@H]2O)-c2c1cc(O)c(O)c2O` (some centres undefined), the TGI with A549 NSCLC was above 100 µM; in the experiment on CCRF-CEM leukemia it was 37.6 µM; with HCT-15 colon, 33.3 µM; with HL-60(TB) leukemia, 38.8 µM; in the experiment with MDA-N it was 53.8 µM; in the experiment on RPMI-8226 leukemia it was 76.9 µM. Moreover, the TGI is above 100 µM in the experiment on SK-MEL-2 melanoma, above 100 µM in the experiment with SK-MEL-28 melanoma, above 100 µM in the experiment with SK-OV-3 ovarian and 48.9 µM with SW-620 colon.

`COC(=O)[C@H](Cc1ccccc1)NP(=O)(O)OCC1OC(n2cc(C)c(=O)[nH]c2=O)CC1N=[N+]=[N-]` (some centres undefined): the TGI in the experiment with A549 NSCLC, in the experiment with CCRF-CEM leukemia, with HCT-15 colon, in the experiment on HL-60(TB) leukemia, with MDA-N and in the experiment on RPMI-8226 leukemia was above 100 µM throughout. Moreover, the TGI in the experiment with SK-MEL-2 melanoma, with SK-MEL-28 melanoma, in the experiment with SK-OV-3 ovarian and in the experiment on SW-620 colon was above 100 µM in each case.

With `CC12CC3(O)OC(O1)C1(COC(=O)c4ccccc4)C3CC21OC1OC(CO)C(O)C(O)C1O` (centres undefined), the TGI in the experiment on A549 NSCLC, in the experiment on CCRF-CEM leukemia, in the experiment on HCT-15 colon, with HL-60(TB) leukemia, with MDA-N and in the experiment with RPMI-8226 leukemia was above 100 µM in each case. Besides, the TGI in the experiment with SK-MEL-2 melanoma, with SK-MEL-28 melanoma, in the experiment with SK-OV-3 ovarian and in the experiment on SW-620 colon was above 100 µM throughout.
